# Experimental data from US9447086B2, “6-amino acid heteroaryldihydropyrimidines for the treatment and prophylaxis of hepatitis B virus infection” (priority 2012, dated 2016).
# pEC50: −log10 of the molar value.
# How the values were obtained:
# [1] = Metabolic stability study in human microsome; type: in vitro ADME
# Summary of the method: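 Human liver microsomes (0.5 mg/mL) with 1 μM compound in 100 mM phosphate pH 7.4 at 37 °C, started with 1 mM NADPH or an NADPH-regenerating system. Samples taken at 0, 3, 6, 9, 15 and 30 min, quenched in methanol. Parent remaining measured by LC-MS/MS; no-cofactor controls included.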
# HBV [2] = test: Selectivity index (CC50 value/EC50 value); type: cell-based, Hepatitis B virus
# Summary of the method: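 Ratio of CC50 to EC50, measuring antiviral activity against HBV relative to cytotoxicity in vitro; higher values indicate greater separation between viral inhibition and cell death.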
# HepDE19 cells = test: Cytotoxicity (CC50) in HepDE19 cells, CCK-8 cell viability; type: cell-based
# Summary of the method: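 HBV-transfected HepG2-derived HepDE19 cells grown in DMEM-F12 with 10% FBS and G418. Viability read five days after treatment by CCK-8, 2 h at 37 °C, absorbance at 450 and 630 nm.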
# HBV [3] = test: Anti-HBV activity in vitro in HepG2.2.15 cells (extracellular HBV DNA by qPCR); type: cell-based, Hepatitis B virus; conditions: Hepatitis B virus; HepG2.2.15 cells; in-house data; read-out: EC50
# Summary of the method: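 HepG2.2.15 cells, which constitutively produce HBV, were seeded overnight and then treated for 5 days with half-log serially diluted compounds at 0.5% final DMSO. Extracellular HBV DNA in culture supernatant was extracted and quantified by qPCR.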
# [4] = Lyophilisation solubility assay (Lysa); type: physicochemical; conditions: phosphate buffer, pH 6.5, aqueous buffer, thermodynamic from solid
# Summary of the method: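 Duplicate samples from 10 mM DMSO stocks are dried, redissolved in 0.05 M phosphate buffer pH 6.5, stirred 1 h, shaken 2 h and left overnight. Filtrate and its 1/10 dilution are quantified by direct UV or HPLC-UV, giving solubility in μg/mL.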
Structure (SMILES),Human Hepatic Clearance [1],Selectivity index (CC50/EC50) (HBV [2]),CC50 (HepDE19 cells),pEC50 (HBV [3]),solubility thermodynamic [4]
"CCOC(=O)C1=C(CN2CCOC[C@H]2C(=O)O)NC(c2nccs2)=N[C@H]1c1ccccc1Cl [Example 82, (S)-4-[(R)-6-(2-Chloro-phenyl)-5-ethoxycarbonyl-2-thiazol-2-yl-3,6-dihydro-pyrimidin-4-ylmethyl]-morpholine-3-carboxylic acid]",0 mL/min/kg,>7194,> 100000 nM,7.85,> 618 µg/mL
"COC(=O)C1=C(CN2CCOC[C@H]2C(=O)O)NC(c2nc(C(F)(F)F)cs2)=N[C@H]1c1ccc(F)cc1Cl [Example 95, (S)-4-[(R)-6-(2-Chloro-4-fluoro-phenyl)-5-methoxycarbonyl-2-(4-trifluoromethyl-thiazol-2-yl)-3,6-dihydro-pyrimidin-4-ylmethyl]-morpholine-3-carboxylic acid]",3.04 mL/min/kg,40000,> 100000 nM,8.60,> 705 µg/mL
"CCOC(=O)C1=C(CN2CCOC[C@H]2C(=O)O)NC(c2nccs2)=N[C@H]1c1ccc(F)c(F)c1C [Example 96, (S)-4-[(S)-6-(3,4-Difluoro-2-methyl-phenyl)-5-ethoxycarbonyl-2-thiazol-2-yl-3,6-dihydro-pyrimidin-4-ylmethyl]-morpholine-3-carboxylic acid]",4.8 mL/min/kg,161667,97000 nM,9.22,> 628 µg/mL
"CC(C)OC(=O)C1=C(CN2CCOC[C@H]2C(=O)O)NC(c2nccs2)=N[C@H]1c1ccc(F)cc1Cl [Example 98, (S)-4-[(R)-6-(2-Chloro-4-fluoro-phenyl)-5-isopropoxycarbonyl-2-thiazol-2-yl-3,6-dihydro-pyrimidin-4-ylmethyl]-morpholine-3-carboxylic acid]",0 mL/min/kg,4224,72000 nM,7.77,> 650 µg/mL
"COC(=O)C1=C(CN2CCO[C@H](C)[C@H]2C(=O)O)NC(c2nccs2)=N[C@H]1c1ccc(F)cc1Cl [Example 104, (2R,3S)-4-[(R)-6-(2-Chloro-4-fluoro-phenyl)-5-methoxycarbonyl-2-thiazol-2-yl-3,6-dihydro-pyrimidin-4-ylmethyl]-2-methyl-morpholine-3-carboxylic acid]",5.42 mL/min/kg,>14286,> 100000 nM,8.15,> 667 µg/mL
"COC(=O)C1=C(CN2CCOC[C@@]2(C)C(=O)O)NC(c2nccs2)=N[C@H]1c1ccc(F)cc1Cl [Example 121, (S)-4-(((R)-6-(2-Chloro-4-fluorophenyl)-5-(methoxycarbonyl)-2-(thiazol-2-yl)-3,6-dihydropyrimidin-4-yl)methyl)-3-methylmorpholine-3-carboxylic acid]",1.42 mL/min/kg,>5000,> 100000 nM,7.70,600 µg/mL
"CCOC(=O)C1=C(CN2CCOC[C@H]2C(=O)O)NC(c2nccs2)=N[C@H]1c1ccc(F)c(F)c1Br [Example 128, (3S)-4-[[(4R)-4-(2-Bromo-3,4-difluorophenyl)-5-ethoxycarbonyl-2-(1,3-thiazol-2-yl)-1,4-dihydropyrimidin-6-yl]methyl]morpholine-3-carboxylic acid]",0.26 mL/min/kg,85000,51000 nM,9.22,> 710 µg/mL
